Source: patent publication US12090225B2 (Avalyn Pharma Inc., priority 2018, dated 2024)
Values after ≈ are worked out from the molar mass of the structure shown. Where two headings read alike, the source gives them in different places. Marks after values point to notes of the source that are not given here.

What was measured:
[1] = system: silica pulmonary fibrosis; test: Therapeutic silica pulmonary fibrosis model: lung function (elastance, Flexivent); type: in vivo, C57BL/6 mice; conditions: silica mice
Method: Sham and silica control groups received saline either IN or PO. Five animals were enrolled into sham groups, 10 animals enrolled into each PO dose groups, and 13 animals were enrolled into each IN dosing group. […] Body weights were collected throughout the study, with lung weights at termination. Flexivent was performed to determine elastance (lung function; Table 59). […] The ventilator determined the elastance of each lung as a measure of lung stiffness/fibrosis by inflating the lungs and assessing changes in flow and pressure.

parenchymal collagen = test: Therapeutic silica model: parenchymal collagen (Picrosirius Red); type: in vivo, C57BL/6 mice; conditions: silica mice
Method: Briefly, acclimated 20-22 g female C57BL/6 mice were administered silica on day 1 by the intratracheal route. On the tenth day, treatment was initiated with either saline or nintedanib. […] Sham and silica control groups received saline either IN or PO. Five animals were enrolled into sham groups, 10 animals enrolled into each PO dose groups, and 13 animals were enrolled into each IN dosing group. […] Body weights were collected throughout the study, with lung weights at termination. Flexivent was performed to determine elastance (lung function; Table 59). Left lungs were extracted, stained as assessed for parenchymal collagen (Table 60) and α-smooth muscle actin (αSMA; Table 61), while right lungs were assessed for interleukin-1β (IL-1β; Table 62). […] collagen was measured by Picrosirius Red (PSR) histopathological analysis. […] Due to the positive impact on other key fibrosis modulators (αSMA, IL-1β; Tables 61 and 62) and that silica-induced fibrosis was well-established prior to start of dosing, it is possible that extending the treatment time would ultimately impact parenchymal collagen.

[2] = Dynamic Vapour Sorption (DVS) hygroscopicity; type: physicochemical; conditions: for DVS mass uptake at 90% RH: 25° C., uptake from input material; for Hygroscopicity: DVS
Method: Dynamic Vapour Sorption (DVS). Approximately, 10 mg of sample was placed into a mesh vapour sorption balance pan and loaded into a DVS-1 or DVS Advantage dynamic vapour sorption balance by Surface Measurement Systems. The sample was subjected to a ramping profile from 40-90% relative humidity (RH) at 10% increments, maintaining the sample at each step until a stable weight had been achieved (dm/dt 0.004%, minimum step length 30 minutes, maximum step length 500 minutes) at 25° C. After completion of the sorption cycle, the sample was dried using the same procedure to 0% RH and then a second sorption cycle back to 40% RH. Two cycles were performed. The weight change during the sorption/desorption cycles were plotted, allowing for the hygroscopic nature of the sample to be determined. XRPD analysis was then carried out on any solid retained.

[3] = HBr and HCl salts-filter compatibility study; type: physicochemical; conditions: 0.22 μm PTFE filter; 3% PG solution; glass vials, ambient room condition
Method: HBr and HCl salts-filter compatibility study: this study was conducted to assess the compatibility of the HBr and the HCl salts with various membrane filters. […] The glass vials were stored at ambient room condition and visual appearance was periodically inspected.

interleukin-1β (IL-1β) = test: Therapeutic silica model: lung interleukin-1β; type: in vivo, C57BL/6 mice; conditions: silica mice
Method: (§1) Briefly, acclimated 20-22 g female C57BL/6 mice were administered silica on day 1 by the intratracheal route. On the tenth day, treatment was initiated with either saline or nintedanib. […] Sham and silica control groups received saline either IN or PO. Five animals were enrolled into sham groups, 10 animals enrolled into each PO dose groups, and 13 animals were enrolled into each IN dosing group. […] Body weights were collected throughout the study, with lung weights at termination. Flexivent was performed to determine elastance (lung function; Table 59). Left lungs were extracted, stained as assessed for parenchymal collagen (Table 60) and α-smooth muscle actin (αSMA; Table 61), while right lungs were assessed for interleukin-1β (IL-1β; Table 62). Alpha-smooth muscle actin (αSMA) is a marker of myofibroblast, a key cell type present in fibrotic diseases, including IPF, and is required for production and deposition of collagen.

[4] = Pattern stability screen of potential salts (40° C./75% RH, XRPD); type: physicochemical
Method: XRPD analysis was carried out on a PANalytical X'pert pro, scanning the samples between 3 and 35° 20. The material was gently compressed and loaded onto a multi-well plate with Kapton or Mylar polymer film to support the sample.
Primary Salt Screening. […] The solvent systems shown in Table were selected for salt screening. For sulfonic acids MEK was used instead of methanol and acetone:water 50:50 (v/v) was used instead of IPA:water to avoid any potential genotoxic impurities. Ca. […] If the acid was insoluble in the selected solvent, a slurry was used. If the acid was a liquid it was added to the API slurry from a stock solution in the allocated solvent. The mixtures of API/counterion/solvent were temperature cycled between ambient and 40° C. in 4 hour cycles for ca. 3 days. Any solids present were isolated and allowed to dry at ambient conditions, for ca. 30 minutes prior to analysis by XRPD. Where solutions were obtained they were evaporated to obtain solid material.

[5] = system: α-smooth muscle actin (αSMA); test: Therapeutic silica model: lung α-smooth muscle actin; type: in vivo, C57BL/6 mice; conditions: silica mice
Method: as §1

[6] = system: bleomycin pulmonary fibrosis; test: Therapeutic bleomycin pulmonary fibrosis model: Ashcroft fibrosis score, hydroxyproline; type: in vivo, Sprague Dawley rats
Method: Briefly, acclimated Sprague Dawley male rats (c.a. 253 grams at first dosing) were administered bleomycin on days 1, 2, 3 and 6 by the oropharyngeal (OP) route. On the eighth day, treatment was initiated with either saline or nintedanib. […] Ten animals were enrolled into each dosing group. […] All animals were euthanized on day 28d. Body weights were collected throughout the study, with lung weights at termination (Table 55). Left lungs were extracted and measured for hydroxyproline content, while […] were subjected to histology for Ashcroft fibrosis score determination (Table 56).

[7] = Therapeutic bleomycin model: body weight gain, lung weight-to-body weight ratio, tolerability; conditions: bleomycin rats
[8] = Allometric dose scaling from mouse and rat to human; conditions: for Predicted human half-life: Oral
[9] = Solvent solubility screen; type: physicochemical; conditions: thermodynamic from solid, read-out: Approximate Solubility
Method: Between each addition, the mixture was checked for dissolution and where no dissolution was apparent, the mixture was heated to ca. 40° C. and checked again. Samples where the material dissolved, were left to evaporate. Any solids produced from evaporation samples were analyzed by XRPD in order to assess the polymorphic form.
The solvent systems used during the solvent solubility screen, together with the corresponding ICH Class, are detailed in Table 4.

[10] = Oral Gavage (PO) 30 mg/kg BID, lung
[11] = OP 0.05 mg/kg QD, bleomycin rats
[12] = OP 0.25 mg/kg QD, bleomycin rats
[13] = OP 0.375 mg/kg QD, bleomycin rats
[14] = oral nintedanib HBr 30 mg/kg BID

COC(=O)c1ccc2c(c1)NC(=O)/C2=C(\Nc1ccc(N(C)C(=O)CN2CCN(C)CC2)cc1)c1ccccc1 [Nintedanib HBr]
Elastance, Delta to Vehicle (%) ([1]; Oral Gavage (PO) 30 mg/kg BID): −122.2% | Elastance, Sham Subtracted ([1]; Oral Gavage (PO) 30 mg/kg BID): −0.2 | Parenchymal Collagen, Delta to Vehicle (%) (parenchymal collagen; Oral Gavage (PO) 30 mg/kg BID): 15.6% | Parenchymal Collagen (parenchymal collagen; Oral Gavage (PO) 30 mg/kg BID, Picrosirius Red): 0.74 | DVS mass uptake at 90% RH ([2]; listed as HBr salt): ca. 4.5% | Hygroscopicity ([2]; listed as HBr): Hygroscopic | Post-DVS XRPD pattern ([2]; listed as HBr salt): remain unchanged | visual appearance after filtration [3]: no change in appearance through 1 month | IL-1β, Delta to Vehicle (%) (interleukin-1β (IL-1β); Oral Gavage (PO) 30 mg/kg BID): −1.5% | IL-1β (interleukin-1β (IL-1β); [10]): 1001.0 pg/mL | XRPD pattern after 72 hrs 40° C./75% RH ([4]; Initial pattern 3, listed as HBr): 3 | XRPD pattern after 72 hrs 40° C./75% RH ([4]; Initial pattern 4): 4 | XRPD pattern after 72 hrs 40° C./75% RH ([4]; Initial pattern 5): 5 | αSMA (%) [5, 10]: 22.8% | αSMA, Delta to Vehicle (%) ([5]; Oral Gavage (PO) 30 mg/kg BID, p < 0.005): −47.7^b % | Fibrosis Score (SD) (Ashcroft) [6, 11]: 2.7 (0.94) | Fibrosis Score, Delta to Vehicle (%) [6, 11]: −12.5% | Fibrosis Score (SD) (Ashcroft) [6, 12]: 2.1 (0.97) | Fibrosis Score, Delta to Vehicle (%) [6, 12]: 12.5% | Fibrosis Score (SD) (Ashcroft) [6, 13]: 1.9 (0.48) | Fibrosis Score, Delta to Vehicle (%) [6, 13]: 20.8% | Body Weight Gain, Delta to Sham (%) ([7]; OP 0.05 mg/kg QD): −18.4% | Body Weight Gain, Delta to Sham (%) ([7]; OP 0.25 mg/kg QD): −26.7% | Body Weight Gain, Delta to Sham (%) ([7]; OP 0.375 mg/kg QD): −4.8%

COC(=O)c1ccc2c(c1)NC(=O)/C2=C(\Nc1ccc(N(C)C(=O)CN2CCN(C)CC2)cc1)c1ccccc1 [Nintedanib, methyl (3Z)-3-[[4-[methyl-[2-(4-methylpiperazin-1-yl)acetyl]amino]anilino]-phenylmethylidene]-2-oxo-1H-indole-6-carboxylate]
lung function (elastance) [1, 14]: Oral was also significant in improving lung function | parenchymal collagen (PSR) (parenchymal collagen; inhalation (IN) or oral nintedanib HBr): not reversed by either inhalation or oral nintedanib treatment | Post-DVS XRPD pattern [2]: remain Pattern 1 | DVS mass uptake at 90% RH [2]: ca. 1.7% | Hygroscopicity [2]: slightly hygroscopic | Predicted human half-life ([8]; line of Mouse Oral 30.0 mg/kg): 13.6 h | Predicted human half-life ([8]; line of Rat Oral 60.0 mg/kg): 13.6 h | Predicted human ELF half-life (alpha) ([8]; from Mouse Inhaled […], 21-fold longer than animal lung half-life): 84^c min | Predicted human ELF half-life (alpha) ([8]; from Mouse Inhaled […], ELF half-life 21-fold longer than animal lung half-life): 84^c min | Predicted human ELF half-life (alpha) ([8]; from Rat Inhaled 0.05 mg/kg, 21-fold longer than animal lung half-life): 294^c min | Predicted human ELF half-life (alpha) ([8]; from Rat Inhaled 0.25 mg/kg, 21-fold longer than animal lung half-life): 294^c min | Predicted human ELF half-life (alpha) ([8]; from Rat Inhaled 0.375 mg/kg, 21-fold longer than animal lung half-life): 294^c min | lung IL-1β (interleukin-1β (IL-1β); Inhaled (IN) nintedanib HBr dose groups): dose responsive reduction, with the high dose achieving significance | lung IL-1β (interleukin-1β (IL-1β); [14]): did not reduce IL-1β levels | lung αSMA levels ([5]; oral and inhaled (IN) nintedanib HBr): both oral and inhaled routes have a substantial impact reducing αSMA lung levels, with the inhaled low and oral doses showing significance | lung fibrosis score (Ashcroft) ([6]; Inhaled (OP) nintedanib HBr dose groups, bleomycin rats): dose responsive reduction in fibrosis score | anti-fibrotic activity compared with oral 60 mg/kg BID ([6]; inhaled high dose (0.375 mg/kg OP QD)): more anti-fibrotic activity as oral | anti-fibrotic activity compared with oral 60 mg/kg BID ([6]; inhaled low dose (0.05 mg/kg OP QD)): less anti-fibrotic activity than oral | anti-fibrotic activity compared with oral 60 mg/kg BID ([6]; inhaled mid-dose (0.25 mg/kg OP QD)): equivalent amount of anti-fibrotic activity as oral | solubility ([9]; 1-butanol, 40 °C, organic solvent or mixture): < 10000 µg/mL | solubility ([9]; 1-propanol, 40 °C, organic solvent or mixture): < 10000 µg/mL | solubility ([9]; 2-propanol, 40 °C, organic solvent or mixture): < 11000 µg/mL | solubility ([9]; 40 °C, aqueous with cosolvent or surfactant or cyclodextrin, 40% Methanol: 60% Water (% v/v)): < 10000 µg/mL | solubility ([9]; 50% 2-propanol: 50% water (% v/v), 40 °C, aqueous with cosolvent or surfactant or cyclodextrin): < 10000 µg/mL | solubility ([9]; N,N′-dimethylacetamide, organic solvent or mixture): 26000 µg/mL (≈ 48.2 mM) | solubility ([9]; THF, 40 °C, organic solvent or mixture): < 10000 µg/mL | solubility ([9]; acetone, 40 °C, organic solvent or mixture): < 10000 µg/mL | solubility ([9]; acetonitrile, 40 °C, organic solvent or mixture): < 10000 µg/mL | solubility ([9]; anisole, 40 °C, organic solvent or mixture): < 10000 µg/mL | solubility ([9]; dichloromethane, organic solvent or mixture): 17000 µg/mL (≈ 31.5 mM) | solubility ([9]; dimethylsulfoxide, 40 °C, organic solvent or mixture): < 10000 µg/mL | solubility ([9]; ethanol, 40 °C, organic solvent or mixture): < 10000 µg/mL | solubility ([9]; ethyl acetate, 40 °C, organic solvent or mixture): < 10000 µg/mL | solubility ([9]; ethyl ether, 40 °C, organic solvent or mixture): < 10000 µg/mL | solubility ([9]; heptane, 40 °C, organic solvent or mixture): < 10000 µg/mL | solubility ([9]; isopropyl acetate, 40 °C, organic solvent or mixture): < 10000 µg/mL | solubility ([9]; methanol, 40 °C, organic solvent or mixture): < 11000 µg/mL | solubility ([9]; methylethyl ketone, 40 °C, organic solvent or mixture): < 10000 µg/mL | solubility ([9]; methylisobutyl ketone, 40 °C, organic solvent or mixture): < 10000 µg/mL | solubility ([9]; n-hexane, 40 °C, organic solvent or mixture): < 10000 µg/mL | solubility ([9]; tert-butylmethyl ether, 40 °C, organic solvent or mixture): < 11000 µg/mL | solubility ([9]; toluene, 40 °C, organic solvent or mixture): < 10000 µg/mL | solubility ([9]; water, 40 °C, water): < 10000 µg/mL | body weight gain ([7]; High dose OP (0.375 mg/kg nintedanib HBr QD)): weight gain equivalent to sham animals | body weight gain ([7]; Oral (PO) 60 mg/kg nintedanib esylate BID): gained about half the weight of control animals
